Experimental data: publication PMC11855827, “High-Throughput Screening of Five Compound Libraries for Anthelmintic Activity and Toxicity Leads to the Discovery of Two Flavonoid Compounds” (International Journal of Molecular Sciences, 2025)
Values joined by “and” are separate entries in the source; they are usually repeats but may differ in a detail not shown here. Identical values can stand only once. Like-named read-outs stand apart in the source and are kept apart here.

Tested on: C. elegans
[1] = Table S2, C. elegans SS assay, 110 μM, 0 h, averages of 4 data points
[2] = Table S2, C. elegans SS assay, 110 μM, 24 h, averages of 4 data points

Structure (SMILES) | Percentage of motility inhibition 0 h [1] [%] | Percentage of motility inhibition 24 h [2] | Percentage of motility inhibition 0 h (110 µM) | Percentage of motility inhibition 24 h (110 µM)
Br.CN1[C@H]2C[C@H](OC(=O)[C@H](CO)c3ccccc3)C[C@@H]1[C@@H](O)C2 [Anisodamine (hydrobromide)] | 0 | 1% |  | 
CN1[C@H]2C[C@H](OC(=O)[C@H](CO)c3ccccc3)C[C@@H]1[C@@H](O)C2 [Anisodamine] | 10 | 5% |  | 
COc1ccc(C[C@H]2NC[C@H](O)[C@H]2OC(C)=O)cc1 [Anisomycin] | 10 | 44% |  | 
CC(C)(C)OC(=O)N1CCC[C@H]1c1nc(C(=O)O)cs1 [Antibiotic‐5d] | 0 | 0% |  | 
O=C1CC[C@H](NC(=O)Cc2ccccc2)C(=O)N1 [Antineoplaston A10] | 0 | 0% |  | 
O=c1cc(-c2ccc(O)cc2)oc2cc(O[C@@H]3O[C@H](CO)[C@@H](O)[C@H](O)[C@H]3O)cc(O)c12 [Apigenin 7‐glucoside] | 10 | 40% |  | 
CC1OC(OC2C(Oc3cc(O)c4c(=O)cc(-c5ccc(O)cc5)oc4c3)OC(COC3OC(CO)C(O)C(O)C3O)C(O)C2O)C(O)C(O)C1O (centres unmarked) [Apigenin‐7‐O‐(2G‐rhamnosyl)gentiobioside] | 10 | 0% |  | 
O=C(O)[C@H]1O[C@@H](Oc2cc(O)c3c(=O)cc(-c4ccc(O)cc4)oc3c2)[C@H](O)[C@@H](O)[C@@H]1O [Apigenin‐7‐glucuronide] | 23 | 3% |  | 
C=C(C(=O)OC1C[C@@H]2[C@H]3O[C@H]3[C@H](C1)N2C)c1ccccc1 (some centres unmarked) [Aposcopolamine] | 14 | 10% |  | 
CN[C@@H]1[C@@H](O[C@H]2O[C@H](CO)[C@@H](N)[C@H](O)[C@H]2O)OC2C[C@@H](N)[C@@H](O[C@H]3[C@H](O)[C@@H](O)[C@H](N)C[C@@H]3N)OC2[C@@H]1O (some centres unmarked) [Apramycin (sulfate)] | 29 | 2% |  | 
CC1(C)CC[C@]2(C(=O)O[C@@H]3O[C@H](CO)[C@@H](O)[C@H](O)[C@H]3O)CC[C@]3(C)C(=CC[C@@H]4[C@@]5(C)CC[C@H](O[C@@H]6O[C@H](C(=O)O)[C@@H](O[C@@H]7O[C@@H](CO)[C@H](O)[C@H]7O)[C@H](O)[C@H]6O)C(C)(C)[C@@H]5CC[C@]43C)[C@@H]2C1 [Araloside A] | 6 | 0% |  | 
CCOC(=O)c1c(CSc2ccccc2)n(C)c2cc(Br)c(O)c(CN(C)C)c12.Cl [Arbidol (hydrochloride)] | 33 | 3% |  | 
CC1(C)[C@@H](O[C@@H]2OC[C@H](O[C@@H]3O[C@H](CO)[C@@H](O)[C@H](O)[C@H]3O[C@@H]3OC[C@@H](O)[C@H](O)[C@H]3O)[C@H](O)[C@H]2O[C@@H]2O[C@H](CO)[C@@H](O)[C@H](O)[C@H]2O)CC[C@]2(C)[C@H]3CC[C@]45OC[C@@]6(CC[C@](C)(C=O)C[C@H]64)[C@H](O)C[C@@]5(C)[C@]3(C)CC[C@@H]12 [Ardisiacrispin A] | 22 | 0% |  | 
CN1CCC=C(C(=O)O)C1.Cl [Arecaidine (hydrochloride)] | 7 | 6% |  | 
CN1CCC=C(C(=O)O)C1 [Arecaidine] | 16 | 0% |  | 
COc1cccc2c1cc([N+](=O)[O-])c1c(C(=O)O)cc3c(c12)OCO3 [Aristolochic acid A] |  | 22% and 11% |  | 
CC1(C)CC[C@]2(C(=O)O[C@@H]3O[C@H](CO)[C@@H](O)[C@H](O)[C@H]3O)CC[C@]3(C)C(=CC[C@@H]4[C@@]5(C)C[C@@H](O)[C@H](O)C(C)(C)[C@@H]5CC[C@]43C)[C@@H]2[C@@H]1O [Arjunetin] | 0 | 18% |  | 
COc1cc2c(cc1OC)C(Cc1ccc(O)cc1)N(C)CC2 (centres unmarked) [Armepavine] | 0 | 12% |  | 
CC(=O)c1cc2c(CO)cc(O)cc2oc1=O [Armillarisin A] | 0 | 4% |  | 
C=C(C)C(=O)O[C@H]1[C@@H]2[C@H](C)C(=O)O[C@@H]2C[C@@H](C)[C@@H]2C=CC(=O)[C@]21C [Arnicolide D] | 16 | 25% |  | 

Structure (SMILES) | Percentage of motility inhibition 0 h [1] [%] | Percentage of motility inhibition 24 h [2] | Percentage of motility inhibition 0 h (110 µM) | Percentage of motility inhibition 24 h (110 µM)
C=C1CC[C@@]2(C)[C@H]([C@@H]1C)[C@H]1CC[C@@H]3[C@@]4(C)CC[C@H](O)C(C)(C)[C@@H]4CC[C@@]3(C)[C@]1(C)C[C@@H]2O [Arnidiol] | 12 | 57% |  | 
C=C(C(=O)O)[C@@H]1CC[C@@H](C)[C@@H]2CCC(C)=C[C@@H]21 [Artemisic acid] | 1 | 14% |  | 
C[C@@H]1CC[C@H]2[C@@H](C)C(=O)O[C@@H]3O[C@@]4(C)CC[C@@H]1[C@]32OO4 [Artemisinin] |  | 9% and 0% |  | 
COc1ccc(-c2oc3cc(OC)c(OC)c(O)c3c(=O)c2OC)cc1OC [Artemitin] | 0 | 20% |  | 
CCO[C@H]1O[C@@H]2O[C@@]3(C)CC[C@H]4[C@H](C)CC[C@@H]([C@H]1C)[C@@]24OO3 [Artemotil] |  | 0% and 2% |  | 
CC1(C)CC[C@]2(C(=O)O[C@@H]3O[C@H](CO[C@@H]4O[C@H](CO)[C@@H](O)[C@H](O)[C@H]4O)[C@@H](O)[C@H](O)[C@H]3O)CC[C@]3(C)C(=CC[C@@H]4[C@@]5(C)CC[C@H](O[C@@H]6OC[C@H](O)[C@H](O)[C@H]6O)[C@@](C)(CO)[C@@H]5CC[C@]43C)[C@@H]2C1 [Asperosaponin VI] | 0 | 2% |  | 
CC(C)(O)[C@@H]1CC[C@](C)([C@H]2[C@@H](O)C[C@@]3(C)[C@@H]4C[C@H](O)[C@H]5C(C)(C)[C@@H](O[C@@H]6OC[C@@H](O)[C@H](O)[C@H]6O[C@@H]6O[C@H](CO)[C@@H](O)[C@H](O)[C@H]6O)CC[C@@]56C[C@@]46CC[C@]23C)O1 [Astragaloside III] | 0 | 35% |  | 
CC(=O)O[C@H]1[C@H](O[C@H]2CC[C@]34C[C@]35CC[C@]3(C)[C@@H]([C@@]6(C)CC[C@@H](C(C)(C)O)O6)[C@@H](O)C[C@@]3(C)[C@@H]5C[C@H](O[C@@H]3O[C@H](CO)[C@@H](O)[C@H](O)[C@H]3O)[C@H]4C2(C)C)OC[C@@H](O)[C@@H]1O [Astragaloside II] | 5 | 45% |  | 
CC(C)(O)[C@@H]1CC[C@](C)([C@H]2[C@@H](O)C[C@@]3(C)[C@@H]4C[C@H](O[C@@H]5O[C@H](CO)[C@@H](O)[C@H](O)[C@H]5O)[C@H]5C(C)(C)[C@@H](O[C@@H]6OC[C@@H](O)[C@H](O)[C@H]6O)CC[C@@]56C[C@@]46CC[C@]23C)O1 [Astragaloside IV] | 10 | 0% |  | 
CC(C)(O)[C@@H]1CC[C@](C)([C@H]2[C@@H](O)C[C@@]3(C)[C@@H]4C[C@H](O[C@@H]5O[C@H](CO)[C@@H](O)[C@H](O)[C@H]5O)[C@H]5C(C)(C)[C@@H](O[C@@H]6OC[C@@H](O)[C@H](O)[C@H]6O[C@@H]6O[C@H](CO)[C@@H](O)[C@H](O)[C@H]6O)CC[C@@]56C[C@@]46CC[C@]23C)O1 [Astragaloside VI] | 3 | 0% |  | 
CC(C)(O)[C@@H]1CC[C@](C)([C@H]2[C@@H](O)C[C@@]3(C)[C@@H]4C[C@H](O)[C@H]5C(C)(C)[C@@H](O)CC[C@]5(C)C4=CC[C@]23C)O1 [Astragenol] | 50 | 50% |  | 
COC(=O)N[C@H](C(=O)N[C@@H](Cc1ccccc1)[C@@H](O)CN(Cc1ccc(-c2ccccn2)cc1)NC(=O)[C@@H](NC(=O)OC)C(C)(C)C)C(C)(C)C.O=S(=O)(O)O [Atazanavir (sulfate)] | 3 | 4% |  | 
C=C1[C@@H]2CCC3[C@@](CC[C@@H]4[C@H](C(=O)O)C[C@@H](O[C@@H]5O[C@H](CO)[C@@H](OS(=O)(=O)[O-])[C@H](OS(=O)(=O)[O-])[C@H]5OC(=O)CC(C)C)C[C@@]34C)(C2)[C@@H]1O.[K+].[K+] (some centres unmarked) [Atractyloside (potassium salt)] | 29 | 45% |  | 
CC(C)(O[C@@H]1O[C@H](CO)[C@@H](O)[C@H](O)[C@H]1O)[C@@H]1CC[C@](O)(CO)[C@H]2CC(=O)[C@@](C)(O)[C@@H]2C1 [Atractyloside A] | 13 | 28% |  | 
CN1[C@@H]2CC[C@H]1C[C@@H](OC(=O)C(CO)c1ccccc1)C2 (some centres unmarked) [Atropine] |  |  | 3% and 0% | 3% and 8%
O=C(N[C@@H](Cc1ccccc1)C(=O)N[C@H](CO)Cc1ccccc1)c1ccccc1 [Aurantiamide] | 0 | 15% |  | 
NC(=O)[C@@H]1CC[C@@H]2CN1C(=O)N2OS(=O)(=O)[O-].[Na+] [Avibactam (sodium hydrate)] | 37 | 3% |  | 
NC(=O)[C@@H]1CC[C@@H]2CN1C(=O)N2OS(=O)(=O)[O-].[Na+] [Avibactam (sodium)] | 0 | 8% |  | 
CC[C@H]1OC(=O)[C@H](C)[C@@H](O[C@H]2C[C@@](C)(OC)[C@@H](O)[C@H](C)O2)[C@H](C)[C@@H](O[C@@H]2O[C@H](C)C[C@H](N(C)C)[C@H]2O)[C@](C)(O)C[C@@H](C)CN[C@H](C)[C@@H](O)[C@]1(C)O [Azathramycin] | 11 | 10% |  | 
CC1(C)S[C@@H]2[C@H](NC(=O)[C@H](NC(=O)N3CCNC3=O)c3ccccc3)C(=O)N2[C@H]1C(=O)[O-].[Na+] [Azlocillin (sodium salt)] | 31 | 0% |  | 
